Our source for the T/C values is PubChem BioAssay AID220 (DTP/NCI, 2004).

Where “and” joins values, the source holds several entries; their conditions need not be identical. Equal values may be shown once. Inconclusive results are not listed.

The subject of the test is CD8F1 mice, subcutaneous mammary adenocarcinoma, T/C%. As to the kind of experiment: NCI In Vivo Anticancer Drug Screen. Data for tumor model Mammary Adenocarcinoma CD8F1 (subcutaneous) in CD8F1. The conditions noted are these: higher = larger tumour. The procedure, abridged: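 Transplantable tumors were established in mice, animals were dosed with compound or vehicle, and survival or tumor size was then measured in both groups. The treated result was divided by the control result.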

Where [1] appears, read: endpoint: median tumor weight (est.), dose: 12.5 mg/kg/injection, schedule: Q07DX005 (ip), vehicle: Klucel (hydroxypropylcellulose) (HPC).
Setting [2] is: endpoint: median tumor weight (est.), dose: 50.0 mg/kg/injection, schedule: Q07DX005 (ip), vehicle: Klucel (hydroxypropylcellulose) (HPC).

For the compound `O=NN(CCCl)C(=O)NC1CCCCC1`, the T/C runs as follows: (endpoint: mean tumor weight (est.), dose: 25.0 mg/kg/injection, schedule: Q07DX003 (ip), vehicle: saline + alcohol) 88 % of control; (endpoint: mean tumor weight (est.), dose: 50.0 mg/kg/injection, schedule: Q07DX003 (ip), vehicle: saline + alcohol) 28 % of control; (endpoint: mean tumor weight, dose: 6.25 mg/kg/injection, schedule: Q01DX009 (ip), vehicle: saline) 78 % of control; (endpoint: mean tumor weight, dose: 12.5 mg/kg/injection, schedule: Q01DX009 (ip), vehicle: saline) 75 % of control; (endpoint: mean tumor weight, dose: 12.5 mg/kg/injection, schedule: Q07DX006 (ip), vehicle: saline + alcohol) 74 % of control; (endpoint: mean tumor weight, dose: 25.0 mg/kg/injection, schedule: Q01DX009 (ip), vehicle: saline) 28 % of control. Further, the T/C is 44 % of control (endpoint: mean tumor weight, dose: 25.0 mg/kg/injection, schedule: Q07DX006 (ip), vehicle: saline + alcohol); 61 % of control (endpoint: mean tumor weight, dose: 25.0 mg/kg/injection, schedule: Q07DX006 (ip), vehicle: saline); 11 % of control (endpoint: mean tumor weight, dose: 50.0 mg/kg/injection, schedule: Q07DX006 (ip), vehicle: saline + alcohol); 220 % of control (endpoint: mean tumor weight, dose: 50.0 mg/kg/injection, schedule: Q07DX006 (ip), vehicle: saline); 99 % of control (endpoint: median tumor weight (est.), dose: 8.0 mg/kg/injection, schedule: Q07DX005 (ip), vehicle: Klucel (hydroxypropylcellulose) (HPC)); 30 % of control (endpoint: median tumor weight (est.), dose: 16.0 mg/kg/injection, schedule: Q07DX005 (ip), vehicle: Klucel (hydroxypropylcellulose) (HPC)). Also, the T/C reads like this: (endpoint: median tumor weight (est.), dose: 32.0 mg/kg/injection, schedule: Q07DX005 (ip), vehicle: Klucel (hydroxypropylcellulose) (HPC)) 29 % of control; (endpoint: median tumor weight change, dose: 4.0 mg/kg/injection, schedule: Q01DX001 (ip), vehicle: Klucel (hydroxypropylcellulose) (HPC)) 66 % of control; (endpoint: median tumor weight change, dose: 8.0 mg/kg/injection, schedule: Q01DX001 (ip), vehicle: Klucel (hydroxypropylcellulose) (HPC)) 73 % of control; (endpoint: median tumor weight change, dose: 15.0 mg/kg/injection, schedule: Q01DX001 (ip), vehicle: Klucel (hydroxypropylcellulose) (HPC)) 91 % of control; (endpoint: median tumor weight change, dose: 16.0 mg/kg/injection, schedule: Q01DX001 (ip), vehicle: Klucel (hydroxypropylcellulose) (HPC)) 55 % of control; (endpoint: median tumor weight change, dose: 30.0 mg/kg/injection, schedule: Q01DX001 (ip), vehicle: Klucel (hydroxypropylcellulose) (HPC)) 34 % of control. Moreover, the T/C (endpoint: median tumor weight change, dose: 32.0 mg/kg/injection, schedule: Q01DX001 (ip), vehicle: Klucel (hydroxypropylcellulose) (HPC)) was 40 % of control; the T/C (endpoint: median tumor weight change, dose: 60.0 mg/kg/injection, schedule: Q01DX001 (ip), vehicle: Klucel (hydroxypropylcellulose) (HPC)) was -23 % of control; the T/C (endpoint: median tumor weight change, dose: 80.0 mg/kg/injection, schedule: Q01DX001 (ip), vehicle: Klucel (hydroxypropylcellulose) (HPC)) was 17 % of control.

`NC(N)=NC(N)=Nc1ccc(-c2ccc(N=C(N)N=C(N)N)cc2)cc1`: the T/C reads like this: (endpoint: median tumor weight (est.), dose: 3.12 mg/kg/injection, schedule: Q07DX005 (ip), vehicle: saline with Tween-80) 108 % of control; (endpoint: median tumor weight (est.), dose: 6.25 mg/kg/injection, schedule: Q07DX005 (ip), vehicle: saline with Tween-80) 118 % of control; (endpoint: median tumor weight (est.), dose: 12.5 mg/kg/injection, schedule: Q07DX005 (ip), vehicle: saline with Tween-80) 156 % of control.

For `N=c1ccn2c(n1)OC1C(O)C(CO)OC12` (configuration not stated), the T/C is, setting by setting: (endpoint: median tumor weight (est.), dose: 25.0 mg/kg/injection, schedule: Q07DX005 (ip), vehicle: saline) 80 % of control; (endpoint: median tumor weight (est.), dose: 50.0 mg/kg/injection, schedule: Q07DX005 (ip), vehicle: saline) 159 % of control; (endpoint: median tumor weight (est.), dose: 100.0 mg/kg/injection, schedule: Q07DX005 (ip), vehicle: saline) 111 % of control; (endpoint: median tumor weight (est.), dose: 100.0 mg/kg/injection, schedule: Q07DX005 (ip), vehicle: suspension in saline) 81 % of control; (endpoint: median tumor weight (est.), dose: 200.0 mg/kg/injection, schedule: Q07DX005 (ip), vehicle: saline) 53 % of control; (endpoint: median tumor weight (est.), dose: 200.0 mg/kg/injection, schedule: Q07DX005 (ip), vehicle: suspension in saline) 109 % of control. The T/C reads like this: (endpoint: median tumor weight (est.), dose: 400.0 mg/kg/injection, schedule: Q07DX005 (ip), vehicle: saline) 22 % of control; (endpoint: median tumor weight (est.), dose: 400.0 mg/kg/injection, schedule: Q07DX005 (ip), vehicle: suspension in saline) 70 % of control; (endpoint: median tumor weight (est.), dose: 600.0 mg/kg/injection, schedule: Q07DX005 (ip), vehicle: saline) 21 % of control; (endpoint: median tumor weight (est.), dose: 800.0 mg/kg/injection, schedule: Q07DX005 (ip), vehicle: suspension in saline) 52 % of control; (endpoint: median tumor weight (est.), dose: 1600.0 mg/kg/injection, schedule: Q07DX005 (ip), vehicle: suspension in saline) 35 % of control.

`CCCCN(CCCC)C(Cl)=Nc1ccccc1`: the T/C (endpoint: median tumor weight change, dose: 125.0 mg/kg/injection, schedule: Q01DX001 (ip), vehicle: Klucel (hydroxypropylcellulose) (HPC)) is 82 % of control and 107 % of control.

Take `O=c1[nH]c(=O)n([C@H]2CCCO2)cc1F`: the T/C reads like this: under setting [1], 100 % of control; (endpoint: median tumor weight (est.), dose: 20.0 mg/kg/injection, schedule: Q07DX005 (ip), vehicle: Klucel (hydroxypropylcellulose) (HPC)) 82 % of control; (endpoint: median tumor weight (est.), dose: 40.0 mg/kg/injection, schedule: Q07DX005 (ip), vehicle: Klucel (hydroxypropylcellulose) (HPC)) 97 % of control; under setting [2], 102 % of control; (endpoint: median tumor weight (est.), dose: 100.0 mg/kg/injection, schedule: Q07DX005 (ip), vehicle: Klucel (hydroxypropylcellulose) (HPC)) 84 % of control; (endpoint: median tumor weight (est.), dose: 160.0 mg/kg/injection, schedule: Q07DX005 (ip), vehicle: Klucel (hydroxypropylcellulose) (HPC)) 91 % of control. Moreover, the T/C reads like this: (endpoint: median tumor weight (est.), dose: 200.0 mg/kg/injection, schedule: Q07DX005 (ip), vehicle: Klucel (hydroxypropylcellulose) (HPC)) 95 % of control; (endpoint: median tumor weight (est.), dose: 320.0 mg/kg/injection, schedule: Q07DX005 (ip), vehicle: Klucel (hydroxypropylcellulose) (HPC)) 10 % of control; (endpoint: median tumor weight (est.), dose: 400.0 mg/kg/injection, schedule: Q07DX005 (ip), vehicle: Klucel (hydroxypropylcellulose) (HPC)) 4 % of control.

As for `CCCCCC[Se][Se]CCCCCC`, the T/C (endpoint: median tumor weight change, dose: 31.25 mg/kg/injection, schedule: Q01DX001 (ip), vehicle: Klucel (hydroxypropylcellulose) (HPC)) was 116 % of control and the T/C (endpoint: median tumor weight change, dose: 62.5 mg/kg/injection, schedule: Q01DX001 (ip), vehicle: Klucel (hydroxypropylcellulose) (HPC)) is 159 % of control.

Consider `Cc1cn(C2CC(F)C(CO)O2)c(=O)[nH]c1=O` (configuration not stated), for which the T/C by setting is: (endpoint: median tumor weight change, dose: 250.0 mg/kg/injection, schedule: Q01DX001 (ip), vehicle: suspension in saline) 71 % of control; (endpoint: median tumor weight change, dose: 500.0 mg/kg/injection, schedule: Q01DX001 (ip), vehicle: suspension in saline) 69 % of control; (endpoint: median tumor weight change, dose: 1000.0 mg/kg/injection, schedule: Q01DX001 (ip), vehicle: suspension in saline) 79 % of control.

On to `Nc1ccc(S(=O)(=O)c2ccc(N)cc2)cc1`, for which the T/C runs as follows: (endpoint: median tumor weight change, dose: 31.25 mg/kg/injection, schedule: Q01DX001 (ip), vehicle: saline with Tween-80) 106 % of control; (endpoint: median tumor weight change, dose: 62.5 mg/kg/injection, schedule: Q01DX001 (ip), vehicle: saline with Tween-80) 92 % of control; (endpoint: median tumor weight change, dose: 125.0 mg/kg/injection, schedule: Q01DX001 (ip), vehicle: saline with Tween-80) 87 % of control; (endpoint: median tumor weight change, dose: 250.0 mg/kg/injection, schedule: Q01DX001 (ip), vehicle: saline with Tween-80) 88 % of control; (endpoint: median tumor weight change, dose: 500.0 mg/kg/injection, schedule: Q01DX001 (ip), vehicle: saline with Tween-80) 80 % of control.

`Nc1ccc2nc3ccc(N)cc3[n+](-c3ccccc3)c2c1`: the T/C (endpoint: median tumor weight (est.), dose: 6.25 mg/kg/injection, schedule: Q07DX005 (ip), vehicle: Klucel (hydroxypropylcellulose) (HPC)) is 90 % of control; the T/C (endpoint: median tumor weight (est.), dose: 6.25 mg/kg/injection, schedule: Q07DX005 (ip), vehicle: suspension in saline) is 72 % of control; the T/C under setting [1] is 35 % of control; the T/C (endpoint: median tumor weight (est.), dose: 12.5 mg/kg/injection, schedule: Q07DX005 (ip), vehicle: suspension in saline) is 64 % of control; the T/C (endpoint: median tumor weight (est.), dose: 25.0 mg/kg/injection, schedule: Q07DX005 (ip), vehicle: Klucel (hydroxypropylcellulose) (HPC)) was 80 % of control; the T/C (endpoint: median tumor weight (est.), dose: 25.0 mg/kg/injection, schedule: Q07DX005 (ip), vehicle: suspension in saline) is 95 % of control. The T/C under setting [2] is 45 % of control.
